The source of these data is ChEMBL document CHEMBL1201862, “PubChem BioAssay data set” (2004).

Some test systems named below: 786-0; BT-549; CAKI-1; DU-145; HCT-116; HOP-62; HT-29; MDA-MB-231; MDA-MB-435; MDA-N; Malme-3M; NCI-H460; NCI-H522; NCI/ADR-RES; OVCAR-8; RXF 393; SF-539; TK-10; UACC-62; UO-31.
Holding throughout (assay): NCI-60 cell line screen, 48 h

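Grown in 96-well plates, cells were treated for 48 hours with each compound at five concentrations. Insufficient inhibition: endpoint recorded as highest concentration tested. At the GI50, growth is halved.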 Activity calls are given as the source filed them. No stated cut-off is given here; in the data, active = GI50 up to about 1.1 µM and inactive = higher.

As for `CC[C@@]1(O)C(=O)OCc2c1cc1n(c2=O)Cc2c-1nc1ccccc1c2/C=N\NC(=O)C(N)Cc1c[nH]c2ccccc12` (stereo partly drawn), the GI50 is 0.108 µM (active) with 786-0; 6.25 µM (inactive) in the experiment on BT-549; 0.0578 µM (active) in the experiment with CAKI-1; 0.164 µM (active) with DU-145; 0.392 µM (active) in the experiment with HCT-116; 0.0556 µM (active) in the experiment with HOP-62. For the same compound, the GI50 is 3.74 µM (inactive) in the experiment with HT-29; 33 µM (inactive) in the experiment with MDA-MB-231; 1.05 µM (active) in the experiment on MDA-MB-435; 2.02 µM (inactive) in the experiment with MDA-N; 1.76 µM (inactive) in the experiment on Malme-3M; 0.104 µM (active) with NCI-H460. Also, the GI50 was 0.643 µM (active) in the experiment with NCI-H522; 0.809 µM (active) in the experiment on NCI/ADR-RES; 0.555 µM (active) in the experiment on OVCAR-8; 0.145 µM (active) in the experiment with RXF 393; 0.101 µM (active) in the experiment with SF-539; 20 µM (inactive) in the experiment on TK-10. Further, the figures for the GI50 in the experiment on UACC-62 and in the experiment with UO-31 were 0.0528 µM (active) and 0.173 µM (active), respectively.

`O=C1/C(=C/c2ccccc2)CN(C(=O)CCN2CCCC2)C/C1=C\c1ccccc1`: the GI50 was 0.895 µM (active) with 786-0; 1.56 µM (inactive) in the experiment on BT-549; 3.98 µM (inactive) in the experiment on CAKI-1; 4.48 µM (inactive) in the experiment on DU-145; 0.355 µM (active) in the experiment with HCT-116; 7.31 µM (inactive) in the experiment with HOP-62. Besides, the GI50 was 0.867 µM (active) with HT-29; 1.51 µM (inactive) in the experiment with MDA-MB-231; 1.28 µM (inactive) in the experiment with MDA-MB-435; 0.426 µM (active) in the experiment on MDA-N; 3.03 µM (inactive) in the experiment on Malme-3M; 1.77 µM (inactive) with NCI-H460. For the same compound, the GI50 in the experiment on NCI-H522 was 1.31 µM (inactive); in the experiment with NCI/ADR-RES it was 0.27 µM (active); in the experiment with OVCAR-8 it was 1.53 µM (inactive); in the experiment on RXF 393, 2.33 µM (inactive); in the experiment on SF-539, 1.85 µM (inactive); in the experiment with TK-10, 3.12 µM (inactive). In addition, the GI50 in the experiment with UACC-62 is 1.61 µM (inactive); in the experiment with UO-31 it was 2.77 µM (inactive).

As for `Cc1cc(-c2ccc(C(=O)C(Cl)(Cl)Cl)[nH]2)on1`, the GI50 was 37 µM (inactive) in the experiment with 786-0; 33.3 µM (inactive) in the experiment with BT-549; 18.1 µM (inactive) in the experiment with CAKI-1; 16.1 µM (inactive) in the experiment on DU-145; 18 µM (inactive) with HCT-116; 11.4 µM (inactive) with HOP-62. The GI50 in the experiment with HT-29 is 28.4 µM (inactive); in the experiment on MDA-MB-231, 18 µM (inactive); in the experiment with MDA-MB-435 it was 20.5 µM (inactive); in the experiment with MDA-N it was 34.2 µM (inactive); with Malme-3M it was 73.1 µM (inactive); with NCI-H460, 10.2 µM (inactive). Further, the GI50 with NCI-H522 is 21.2 µM (inactive); with NCI/ADR-RES, 29.3 µM (inactive); with OVCAR-8 it was 32.7 µM (inactive); in the experiment with RXF 393 it was 17.1 µM (inactive); with SF-539, 15.3 µM (inactive); in the experiment on TK-10 it was 27.4 µM (inactive). Also, the GI50 in the experiment on UACC-62 is 28.2 µM (inactive); in the experiment with UO-31 it was 22.3 µM (inactive).

As for `C[C@@H]1Nc2cc(NC(=O)OCCF)nc(N)c2N=C1c1ccccc1`, the GI50 with 786-0 is < 0.0001 µM (active); in the experiment on BT-549 it was 84.1 µM (inactive); with CAKI-1 it was > 100 µM (inactive); in the experiment with DU-145 it was < 0.0001 µM (active); in the experiment with HCT-116, < 0.0001 µM (active); with HOP-62, < 0.0001 µM (active). Moreover, the GI50 in the experiment with HT-29 is < 0.0001 µM (active); in the experiment with MDA-MB-231 it was < 0.0001 µM (active); in the experiment with MDA-MB-435, < 0.0001 µM (active); in the experiment with MDA-N, < 0.0001 µM (active); with Malme-3M, 0.111 µM (active); in the experiment with NCI-H460, < 0.0001 µM (active). The GI50 is < 0.0001 µM (active) in the experiment with NCI-H522; < 0.0001 µM (active) in the experiment on NCI/ADR-RES; < 0.0001 µM (active) in the experiment on OVCAR-8; 29 µM (inactive) with RXF 393; < 0.0001 µM (active) in the experiment on SF-539; 34.8 µM (inactive) with UACC-62. Besides, in the experiment with UO-31, the GI50 is 21.5 µM (inactive).

Turning to `O=[N+]([O-])c1ccc(C(=S)Nc2ccccc2)o1`, the GI50 in the experiment on 786-0 was 2.07 µM (inactive); in the experiment on BT-549, 4.76 µM (inactive); in the experiment with CAKI-1, 4.11 µM (inactive); in the experiment with DU-145, 6.41 µM (inactive); in the experiment with HCT-116, 1.81 µM (inactive); in the experiment with HOP-62 it was 2.65 µM (inactive). Moreover, the GI50 is 1.85 µM (inactive) with HT-29; 2.74 µM (inactive) in the experiment with MDA-MB-231; 2.58 µM (inactive) with MDA-MB-435; 2.96 µM (inactive) with MDA-N; 2.91 µM (inactive) in the experiment on Malme-3M; 3.19 µM (inactive) with NCI-H460. The GI50 with NCI-H522 was 1.34 µM (inactive); in the experiment with NCI/ADR-RES, 2.16 µM (inactive); with OVCAR-8, 2.51 µM (inactive); in the experiment on RXF 393, 4.14 µM (inactive); in the experiment on SF-539 it was 1.58 µM (inactive); in the experiment on TK-10 it was 4.74 µM (inactive). The GI50 in the experiment with UACC-62 was 3.46 µM (inactive); in the experiment with UO-31, 2.32 µM (inactive).

For `CC(C)(C)c1cc(C(=O)/C=C/c2c(Cl)cccc2Cl)cc(C(C)(C)C)c1O`, the GI50 is 13.1 µM (inactive) with 786-0; 17.4 µM (inactive) in the experiment with BT-549; 22.2 µM (inactive) in the experiment on CAKI-1; 23 µM (inactive) in the experiment on DU-145; 8.83 µM (inactive) in the experiment on HCT-116; 20 µM (inactive) in the experiment on HOP-62. The GI50 in the experiment with HT-29 was 10.2 µM (inactive); in the experiment on MDA-MB-231, 10.9 µM (inactive); in the experiment with MDA-MB-435, 15.5 µM (inactive); with MDA-N, 16.7 µM (inactive); in the experiment on Malme-3M, 18.6 µM (inactive); in the experiment with NCI-H460, 7.46 µM (inactive). In addition, the GI50 with NCI-H522 was 5.57 µM (inactive); in the experiment with NCI/ADR-RES, 20.1 µM (inactive); with OVCAR-8 it was 18.9 µM (inactive); in the experiment on RXF 393 it was 2.05 µM (inactive); in the experiment on SF-539, 16.1 µM (inactive); in the experiment with TK-10 it was 19.4 µM (inactive). Further, the figures for the GI50 in the experiment with UACC-62 and in the experiment with UO-31 were 12.8 µM (inactive) and 14.9 µM (inactive), respectively.

As to `Cn1c2ccccc2n2c3ccccc3c(=O)c(C#N)c12`, the GI50 in the experiment on 786-0 is 6.01 µM (inactive); in the experiment with BT-549, 43.2 µM (inactive); in the experiment with CAKI-1 it was 3.85 µM (inactive); in the experiment with DU-145, 12.6 µM (inactive); in the experiment on HCT-116, 4.19 µM (inactive); in the experiment on HOP-62, 19.2 µM (inactive). The GI50 is 4.53 µM (inactive) in the experiment with HT-29; 13.9 µM (inactive) with MDA-MB-231; 71.8 µM (inactive) with MDA-MB-435; > 48.5 µM (inactive) in the experiment on MDA-N; 4.27 µM (inactive) in the experiment with Malme-3M; 3.23 µM (inactive) with NCI-H460. In addition, the GI50 is 4.29 µM (inactive) in the experiment with NCI-H522; 4.46 µM (inactive) with NCI/ADR-RES; 3.96 µM (inactive) in the experiment on OVCAR-8; 40.7 µM (inactive) in the experiment with RXF 393; 13 µM (inactive) with SF-539; > 55 µM (inactive) with TK-10. The GI50 in the experiment with UACC-62 is 8.11 µM (inactive); in the experiment with UO-31 it was 4.14 µM (inactive).

Regarding `O=C(CCc1ccc(O)cc1)NCCc1cccc(OCc2ccccc2)c1`, the GI50 with 786-0 was 40.4 µM (inactive); in the experiment with BT-549 it was 16.7 µM (inactive); in the experiment on CAKI-1, 48 µM (inactive); in the experiment with DU-145, 30.8 µM (inactive); in the experiment with HCT-116, 21.8 µM (inactive); with HOP-62, 29.6 µM (inactive). The GI50 was 19.5 µM (inactive) with HT-29; 29 µM (inactive) in the experiment with MDA-MB-231; 18.1 µM (inactive) with MDA-MB-435; 25.1 µM (inactive) with MDA-N; 27.7 µM (inactive) in the experiment with Malme-3M; 22.8 µM (inactive) in the experiment on NCI-H460. Moreover, the GI50 in the experiment on NCI-H522 was 32.9 µM (inactive); in the experiment on NCI/ADR-RES, 28.1 µM (inactive); in the experiment on OVCAR-8, 26.2 µM (inactive); in the experiment with RXF 393 it was 15.8 µM (inactive); in the experiment on SF-539, 16.5 µM (inactive); with TK-10, 28.6 µM (inactive). Also, the GI50 in the experiment on UACC-62 is 14.1 µM (inactive); in the experiment on UO-31, 12.7 µM (inactive).

Take `Cc1ccccc1/N=N/c1c(O)c(S(=O)(=O)O)cc2cc(S(=O)(=O)O)ccc12`: the GI50 in the experiment with 786-0, in the experiment with BT-549, with CAKI-1, in the experiment on DU-145, with HCT-116 and with HOP-62 was > 100 µM (inactive) in each case. Moreover, the GI50 with HT-29, in the experiment on MDA-MB-231, in the experiment with MDA-MB-435, in the experiment on MDA-N, with Malme-3M and in the experiment on NCI-H460 was > 100 µM (inactive) throughout. In addition, the GI50 in the experiment with NCI-H522, in the experiment on NCI/ADR-RES, in the experiment with OVCAR-8, in the experiment on RXF 393, in the experiment with SF-539 and in the experiment with TK-10 was > 100 µM (inactive) in each case. Further, the GI50 in the experiment with UACC-62 and in the experiment with UO-31 was > 100 µM (inactive) in each case.

For `CC(NC(=O)C(NC(=O)C(NC(=O)C(F)(F)F)C(C)C)C(C)C)C(=O)Oc1c(Cl)c(Cl)c(Cl)c(Cl)c1Cl` (stereo not drawn), the GI50 in the experiment with BT-549, with CAKI-1, with DU-145, in the experiment on HCT-116, in the experiment on HOP-62 and in the experiment with HT-29 was > 100 µM (inactive) each time. Besides, the GI50 in the experiment with MDA-MB-231 is > 100 µM (inactive); with MDA-MB-435 it was > 100 µM (inactive); with MDA-N it was > 100 µM (inactive); in the experiment on Malme-3M it was > 100 µM (inactive); with NCI-H460, > 100 µM (inactive); with NCI-H522, 85.5 µM (inactive). Also, the GI50 with NCI/ADR-RES, in the experiment with OVCAR-8, in the experiment with RXF 393, with SF-539, with TK-10 and in the experiment with UACC-62 was > 100 µM (inactive) throughout. For the same compound, in the experiment with UO-31, the GI50 is 86.7 µM (inactive).
